Test results: patent US20030166530A1, “Conjugate heat shock protein-binding peptides” (priority 1997, published 2003)
Each block holds one substance with its values, some of them ahead of it. Ends that are not written are not given here.

Legend:
[1] = 17- versus 19-substituted herbimycin derivative; cited from earlier work
[2] = molecular target: T1, gp96 in the presence of herbimycin A (Mus musculus, UniProt P08113); test: Phage display affinity panning on gp96 in the presence of herbimycin A; type: binding; conditions: 20 mM HEPES pH 7.5, 100 mM KCl, 25 mM CaCl2, 5 mM MgAcetate, TWEEN-20; herbimycin A present
T1 construct: mouse cDNA encoding mature gp96 (i.e., wherein the endoplasmic reticulum signal peptide has been removed); made in house; host or cells: Escherichia coli BL21 (pET 11a)
T1 sequence (P08113 22-802): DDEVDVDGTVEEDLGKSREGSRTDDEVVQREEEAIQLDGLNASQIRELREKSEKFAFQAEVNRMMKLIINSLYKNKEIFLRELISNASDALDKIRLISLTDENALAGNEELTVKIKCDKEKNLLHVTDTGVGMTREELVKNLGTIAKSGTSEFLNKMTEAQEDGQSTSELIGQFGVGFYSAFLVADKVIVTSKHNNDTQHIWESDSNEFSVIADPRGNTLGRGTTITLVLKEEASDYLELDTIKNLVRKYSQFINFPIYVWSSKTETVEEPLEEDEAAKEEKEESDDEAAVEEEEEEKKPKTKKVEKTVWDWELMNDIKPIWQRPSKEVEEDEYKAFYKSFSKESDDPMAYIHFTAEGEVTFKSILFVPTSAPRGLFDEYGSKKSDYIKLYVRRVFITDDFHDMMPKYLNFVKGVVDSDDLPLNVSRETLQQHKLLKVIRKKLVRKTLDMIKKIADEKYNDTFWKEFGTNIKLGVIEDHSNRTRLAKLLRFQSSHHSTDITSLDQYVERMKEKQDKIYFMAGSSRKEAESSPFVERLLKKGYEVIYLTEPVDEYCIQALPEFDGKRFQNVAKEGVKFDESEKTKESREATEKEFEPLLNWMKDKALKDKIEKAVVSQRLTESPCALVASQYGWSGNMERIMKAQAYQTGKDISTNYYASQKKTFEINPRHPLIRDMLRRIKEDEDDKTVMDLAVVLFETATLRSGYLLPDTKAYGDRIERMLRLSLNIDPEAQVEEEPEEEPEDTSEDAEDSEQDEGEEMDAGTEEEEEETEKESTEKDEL
Protocol: Preparation of a gp96 expression vector. The mouse cDNA encoding mature gp96 (i.e., wherein the endoplasmic reticulum signal peptide has been removed) was incorporated into the pET 11a expression vector (Novagen) as follows. Gp96 cDNA insert was prepared by polymerase chain reaction (PCR) of a pRc/CMV clone containing the cDNA using the following oligonucleotide primers: […]
Expression of gp96. pET11 gp96 was transformed into BL21 Escherichia coli cells, and plated on LB plates containing ampicillin (50μg/ml). One of the resulting colonies was used to inoculate a 20 ml overnight culture of 2×TY medium containing ampicillin (150 μg/ml). The following day, the resulting culture was spun down and the harvested bacteria were resuspended in 1 ml of fresh medium. Two one liter cultures were then each inoculated with 0.5 ml of the harvested cells and allowed to grow at 37° C. until the optical density, measured at 600 nm, was 0.5. Then, IPTG was added to a concentration of 1 mM and the cells were cultured for another 3 hours before being harvested by centrifugation. The resulting cell pellet was resuspended in 20 ml of 50 mM HEPES pH 7.5, 50 mM KCl, 5 mM MgAcetate, 20% sucrose and 1 mM PMSF. Cell extracts were prepared by pressure shearing in a French Press. The lysates were then spun at 100,000×g for 1.5 hours and the supernatant, which constituted crude gp96 extract, was collected. […]

[3] = tested on: OVA-primed EL-4 target cells; test: 51Cr release assay with effector cells from immunized mice; type: in vivo, C57BL/6 mice; conditions: mice immunized once or twice
Protocol: Preparation of hsp70 and/or peptide for use in immunization. Approximately 15 μg hsp70 and 12 μg OVA-BiP were mixed, on ice, to a final volume of 10 μL in Buffer Y (to produce a final concentration of 21.5 μM hsp70, 0.5 mM OVA-BiP, 20 mM HEPES pH 7.0, 150 mM KCl, 10 mM (NH4)2SO4, 2 mM MgCl2 and 2 mM MgADP, pH 7.0). The mixture was incubated for 30 minutes at 37° C. and was used for in vivo immunizations. Similar incubations were carried out with (i) 5 μl TiterMax adjuvant (Vaxcell, Norcross, Ga.) and 12 μg OVA-BiP (ii) 5 μl TiterMax and 5 μg OVA peptide or (iii) 12 μg OVA-BiP alone.
Preparation of cells for chromium release assay. […]
Chromium release assay. […] Supernatants were harvested and radioactivitiy released by cytotoxic activity was measured in a gamma counter. The percent specific lysis was calculated as 100×[(cpm release by CTL-cpm spontaneously released)/(cpm maximal release-cpm spontaneously released)]. Maximal release was determined by adding 1% NP-40 to lyse all cells. Spontaneous release of all target in the absence of effector cells (measured in a culture of target cells (in the absence of effector cells) maintained in parallel for the duration of the assay) was less than 20% of the maximal release.

EG7 cells = test: EG7 tumor cell challenge after immunization; type: in vivo, C57BL/6 mice; conditions: for tumor-free animals: eight mice per group
Protocol: C57BL/6 mice, 8-10 weeks old, were immunized intradermally with one of the following (eight mice in each group): (a)5 μl TiterMax and 5 μg OVA peptide; (b) 15 μg hsp70 and 5 μg OVA peptide; (c) 5 μl TiterMax and […] (OVA-BiP); (d) 15 μg hsp70 and 12 μg OVA-BiP; (e) control (four animals only in this group); (f) 5 μg OVA peptide; or (g) 12 μg OVA-BiP. The mice then were injected with 4×10^6 EG7 cells. Tumor size was evaluated over time by measuring two diameters, the greatest diameter and the diameter perpendicular to the greatest diameter, and then calculating the average diameter. The results are shown in FIG. 8A-G (corresponding to groups a-g, as set forth above).

[4] = peptide alone (without TiterMax or hsp70)

Substance: 17-allylamino herbimycin
relative activity [1]: more active than 19-allylamino herbimycin

binding of phage-expressed peptides to gp96 [2]: appeared to be favored
Substance: Phe-His-Trp-Trp-Trp (FHWWW; printed: Phe-His-Trp-Trp-Trp) [SEQ ID NO:320]

Substance: SIINFEKLGSGHWDFAWPW [OVA-BiP]
OVA-specific cytotoxic immune response (killing of OVA-primed EL-4 target cells) [3]: significant anti-OVA immune response
tumor diameter and detectable tumor formation (EG7 cells; peptide administered with TiterMax adjuvant): superior to OVA peptide (FIG. 8A) in reducing tumor diameter and in preventing detectable tumor formation altogether
average tumor diameters (EG7 cells; peptide alone (without TiterMax or hsp70), compared with OVA-peptide alone): average tumor diameters were smaller
tumor-free animals (EG7 cells; [4]): 2/8

Substance: Ser Ile Ile Asn Phe Glu Lys Leu (SIINFEKL; printed: Ser Ile Ile Asn Phe Glu Lys Leu) [OVA-peptide, reference compound]
tumor-free animals (EG7 cells; [4]): no animals were tumor-free
